The numbers were not newly measured in US20090186826A1, “Cosmetic or dermopharmaceutical compositions of ceramides and polypeptides” (SEDERMA, priority 2003, published 2009), which cites them from elsewhere.

Where no end group is shown, it is not given here.

The data set concerns fibroblasts. To be noted: reported by Senior et al. J. Cell Biol. 99, 870-874, 1984.

On to “VGVAPG [fragment of the protein called elastin]”, for which the chemotactic activity result is on record as “chemotactic activity”.
